Measurements published in patent US7799753B2, “Bisubstrate inhibitors of protein tyrosine kinases as therapeutic agents” (Board of Governers for Higher Education, priority 2004, dated 2010).
Each block holds one compound with its values, some of them ahead of it. Numbered stars: 1 amine (or outer) side, 2 acyl side, 3 side chain; on linkers, the order of the positions; unused ones are H or OH. Square brackets hold non-standard residues; d marks the D form. Peptide text beside a SMILES is read from it. * marks the point of attachment. X2 = CS(=O)(=O)Nc1ccc(C[C@H](N[*:1])C(=O)[*:2])cc1; Phe(4-NH2) = Nc1ccc(C[C@H](N)C(=O)O)cc1; X1 = Nc1ncnc2c1c(-c1ccccc1)nn2CC(=O)*

Assays:
Src [1] = target: T1, Src (Homo sapiens, UniProt P12931); test: Steady-state kinetic radioactive assay with Src (polyE4Y, [γ-32P]ATP), ATP-phosphopeptide conjugates; assay type: biochemical
Description: Steady-State Kinetic Assays.
Artificial substrate polyE4Y (average MW: 35 kD) was used for routine kinase activity. The kinase activity of PTKs was first determined using a standard radiometric PTK activity assay. This assay contains polyE4Y as the phosphate accepting substrate, [γ-^32P]-ATP, and MgCl2. After a reaction time of 30 min at 30° C., 35 μl of the reaction mixture was removed and spotted onto a filter paper and placed into warm 5% trichloroacetic acid (TCA). The TCA stops the kinase reaction, precipitates the proteins and polyE4Y onto the filter paper, and washes the un-reacted ATP and others away. After 3 TCA washes for 10 min each, the radioactivity remaining on the filter paper was determined by liquid scintillation counting. The assays were done in duplicates and repeated at least three times. Control reactions lacking polyE4Y were included for each enzyme concentration to correct for any non-polyE4Y specific phosphorylation. […] The inhibitory mechanism was determined based on the effect of the compound on the Km and Vm values Inhibitory constant (Ki) was determined by using Sigma Plot 8.0 Enzyme Kinetics Module.

Src [2] = target: T1, Src; test: Radioactive kinase assay, polyE4Y phosphorylation by Src (peptides, N-heteroaromatics and conjugates); assay type: biochemical
[3] = read-out: IC50, inhibition of polyE4Y phosphorylation by Src

T1 sequence (P12931 whole entry, species assumed): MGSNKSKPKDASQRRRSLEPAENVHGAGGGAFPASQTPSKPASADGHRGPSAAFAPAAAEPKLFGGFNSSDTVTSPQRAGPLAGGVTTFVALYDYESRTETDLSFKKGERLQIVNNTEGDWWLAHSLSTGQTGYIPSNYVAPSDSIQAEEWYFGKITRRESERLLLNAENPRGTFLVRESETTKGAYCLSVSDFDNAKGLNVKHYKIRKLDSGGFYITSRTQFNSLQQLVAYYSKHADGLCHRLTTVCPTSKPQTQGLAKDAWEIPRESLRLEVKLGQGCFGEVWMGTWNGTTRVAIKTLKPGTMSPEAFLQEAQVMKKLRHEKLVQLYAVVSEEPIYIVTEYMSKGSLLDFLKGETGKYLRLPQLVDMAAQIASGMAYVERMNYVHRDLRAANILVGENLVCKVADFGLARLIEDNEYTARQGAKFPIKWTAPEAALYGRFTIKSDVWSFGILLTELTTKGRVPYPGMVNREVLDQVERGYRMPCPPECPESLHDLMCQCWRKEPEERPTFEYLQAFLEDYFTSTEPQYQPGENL

SMILES: CC[C@H](C)[C@H](NC(=O)[C@H](CCC(=O)O)NC(=O)[C@H](CCC(=O)O)NC(=O)[C@H](Cc1ccc(OP(=O)(O)O)cc1)NC(=O)CCC(=O)NCCCOCCOCCOCCCN)C(=O)O [Compound 16, H2N-1,13-Trioxa-Suc-pTyr-Glu-Glu-Ile-OH]
- Ki (Src [1]): 608 µM

SMILES: CC[C@H](C)[C@H](NC(=O)[C@H](CS)NC(C)=O)C(=O)N[C@@H](Cc1ccc(O)cc1)C(=O)N[C@@H](CCCCN)C(=O)N[C@@H](Cc1ccc(NS(C)(=O)=O)cc1)C(=O)N[C@@H](Cc1ccc(O)cc1)C(=O)O [Compound 80, Ac-CIYKF(4-NHSO2CH3)Y] (Ac-CIYK[X2]Y-OH)
- IC50 (Src [2]): > 100 µM

SMILES: CC[C@H](C)[C@H](NC(=O)[C@H](Cc1ccc(O)cc1)NC(C)=O)C(=O)N[C@@H](Cc1ccc(O)cc1)C(=O)NCC(=O)N[C@@H](CO)C(=O)N[C@@H](Cc1ccccc1)C(=O)N[C@@H](CCCCN)C(=O)O [Compound 41, Ac-YIYGSFK, reference compound] (Ac-YIYGSFK-OH; C-terminus assumed)
- IC50 (Src [2]; [3]): 570 µM

SMILES: CC[C@H](C)[C@H](NC(=O)[C@H](CCC(=O)O)NC(=O)[C@H](CCC(=O)O)NC(=O)[C@H](Cc1ccc(OP(=O)(O)O)cc1)NC(=O)CCC(=O)NCCCOCCOCCOCCCNS(=O)(=O)c1ccc(C(=O)OC[C@H]2O[C@@H](n3cnc4c(N)ncnc43)[C@H](O)[C@@H]2O)cc1)C(=O)O [Compound 9, 4-(sulfamoyl)benzoyladenosine-pYEEI]
- IC50 (Src [1]): > 300 µM
- enhancement of catalytic activity and phosphorylation (Src [1]; Src): at least 40%

Further lines, results first:

- IC50 (Src [2]; modified peptide analogs, read-out: IC50 (μM), Src kinase inhibitory potency (Table 1)): > 100 µM
SMILES: CC[C@H](C)[C@H](NC(=O)[C@@H](N)Cc1ccc(O)cc1)C(=O)N[C@@H](Cc1ccc(O)cc1)C(=O)NCC(=O)N[C@@H](CO)C(=O)N[C@@H](Cc1ccccc1)C(=O)N[C@@H](CCCCN)C(=O)O [Compound 85, YIYGSFK] (H-YIYGSFK-OH)

- Src inhibitory potency in words (Src [2]; qualitative, relative to parent or comparator named in the text): not active
SMILES: CC[C@H](C)[C@H](NC(=O)[C@H](CS)NC(C)=O)C(=O)N[C@@H](Cc1ccc(O)cc1)C(=O)N[C@@H](CCCCN)C(=O)N[C@@H](Cc1ccc(O)cc1)C(=O)N[C@@H](Cc1ccc(N)cc1)C(=O)O [Compound 68, Ac-CIYKYF(NH2)] (Ac-CIYKY[Phe(4-NH2)]-OH)

- IC50 (Src [2]; [3]): 2.7 µM
SMILES: CC[C@H](C)[C@H](NC(=O)[C@H](Cc1ccc(O)cc1)NC(=O)Cn1nc(-c2ccccc2)c2c(N)ncnc21)C(=O)N[C@@H](Cc1ccc(O)cc1)C(=O)NCC(=O)N[C@@H](CO)C(=O)N[C@@H](Cc1ccccc1)C(=O)N[C@@H](CCCCN)C(=O)O [Compound 43] (X1-YIYGSFK-OH)
